Source: US11814376B2, “Hepatitis b core protein modulators” (Assembly Biosciences, Inc., priority 2015, dated 2023)

Experiments:
[1] = tested on: HBV viral load in AD38 cells; experiment: Viral load production in AD38 cells, quantitative PCR of the core sequence in supernatant; assay type: cell-based; conditions: Hepatitis B virus, 144 h, 10 μM compound, 6 days at 37° C., supernatant qPCR, relative to DMSO control; read-out: AD38 Viral Load (%) (VL with cmpd/VL in DMSO control) at 10 μM
AD38 cells = experiment: Viability of AD38 cells (Promega CellTiter-Glo); assay type: cell-based; conditions: 10 μM compound, 6 days, CellTiter-Glo luminescence normalized to DMSO control (100%)
Outline: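 After 6 days of compound exposure at 37° C (compound added as 10× solution in 10% DMSO; 50,000 cells/well, collagen-coated), medium was replaced with tetracycline-free DMEM/F12, 2% FBS, 1% DMSO. CellTiter-Glo luminescence was then recorded and normalized to DMSO-treated wells as 100% viability.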

SMILES | activity at 10 µM [1] | AD38 Viability Normalized Result (cmpd/DMSO %) at 10 μM (AD38 cells)
N#Cc1ccc(-c2ncc(CNC(=O)c3cc4c(cc3Cl)S(=O)(=O)c3ccccc3C(=O)N4)s2)cc1 [compound 1935] | 0.7% | 112%
O=C(NCc1cnc(C(F)(F)F)s1)c1cc2c(cc1C(F)(F)F)S(=O)(=O)c1ccccc1C(=O)N2 [compound 1936] | 13.5% | 94%
Cc1c(C(=O)NCc2cnc(C(F)(F)F)s2)ccc2c1NC(=O)c1ccccc1O2 [compound 1941] | 5.2% | 84%
Cc1c(C(=O)NCc2cnc(-c3ccc(C#N)cc3)s2)ccc2c1NC(=O)c1ccccc1O2 [compound 1942] | 3% | 106%
CNC(=O)c1ccc(-c2ncc(CNC(=O)c3ccc4c(c3)NC(=O)c3ccccc3S4(=O)=O)s2)cc1 [compound 1943] | 1.9% | 98%
CN(C)C(=O)c1ccc(-c2ncc(CNC(=O)c3ccc4c(c3)NC(=O)c3ccccc3S4(=O)=O)s2)cc1 [compound 1944] | 2.5% | 93%
CC(C)(C)NC(=O)c1ccc(-c2ncc(CNC(=O)c3ccc4c(c3)NC(=O)c3ccccc3S4(=O)=O)s2)cc1 [compound 1947] | 2.3% | 101%
O=C(NCc1cnc(-c2ccc(C(=O)NC3CC3)cc2)s1)c1ccc2c(c1)NC(=O)c1ccccc1S2(=O)=O [compound 1949] | 2.9% | 99%
O=C1CCc2cc(-c3ncc(CNC(=O)c4ccc5c(c4)NC(=O)c4ccccc4S5(=O)=O)s3)ccc2N1 [compound 1951] | 1.8% | 101%
O=C(NCc1cnc(-c2ccc(-n3cccn3)cc2)s1)c1ccc2c(c1)NC(=O)c1ccccc1S2(=O)=O [compound 1952, N-((2-(4-(1H-pyrazol-1-yl)phenyl)thiazol-5-yl)methyl)-11-oxo-10, 11-dihydrodibenzo [b, f] [1, 4] thiazepine-8-carboxamide 5,5-dioxide] | 0.8% | 106%
O=C(NCc1cnc(-c2ccc(-c3cc[nH]n3)cc2)s1)c1ccc2c(c1)NC(=O)c1ccccc1S2(=O)=O [compound 1953] | 0.4% | 118%
O=C(NCc1cnc(-c2ccc(-c3nccs3)cc2)s1)c1ccc2c(c1)NC(=O)c1ccccc1S2(=O)=O [compound 1954] | 0.5% | 106%
O=C(NCc1cnc(-c2cncs2)s1)c1ccc2c(c1)NC(=O)c1ccccc1S2(=O)=O [compound 1956] | 2.3% | 88%
O=C(NCc1cnc(-c2cnco2)s1)c1ccc2c(c1)NC(=O)c1ccccc1S2(=O)=O [compound 1957] | 1.5% | 94%
O=C(NCc1cnc(-c2ncco2)s1)c1ccc2c(c1)NC(=O)c1ccccc1S2(=O)=O [compound 1958] | 1.5% | 91%
O=C(NCc1cnc(-c2cc[nH]n2)s1)c1ccc2c(c1)NC(=O)c1ccccc1S2(=O)=O [compound 1959] | 5% | 92%
O=C(NCc1cnc(-n2cccn2)s1)c1ccc2c(c1)NC(=O)c1ccccc1S2(=O)=O [compound 1960] | 0.8% | 106%
NC(=O)c1ccc(-c2ncc(CNC(=O)c3ccc4c(c3)NC(=O)c3ccccc3S4(=O)=O)s2)c(F)c1 [compound 1970, N-((2-(4-carbamoyl-2-fluorophenyl)thiazol-5-yl)methyl)-11-oxo-10, 11-dihydrodibenzo [b, f] [1, 4] thiazepine-8-carboxamide 5,5-dioxide] | 1.5% | 121%
Cc1c(C(=O)NCc2cnc(-c3ccc(C#N)cc3F)s2)ccc2c1NC(=O)c1ccccc1S2(=O)=O [compound 1971] | 7% | 87%

SMILES | activity at 10 µM [1] | AD38 Viability Normalized Result (cmpd/DMSO %) at 10 μM (AD38 cells)
O=C(NCc1cnc(N2C[C@H](O)CC[C@@H](O)C2)s1)c1ccc2c(c1)NC(=O)c1ccccc1S2(=O)=O [compound 1972] | 23.5% | 100%
O=C1CCN(c2ncc(CNC(=O)c3ccc4c(c3)NC(=O)c3ccccc3S4(=O)=O)s2)CCN1 [compound 1973] | 33.7% | 100%
CN1c2ccc(C(=O)NCc3cnc(-c4ccc(C#N)cc4)s3)cc2NC(=O)c2ccccc21 [compound 1974] | 15.3% | 103%
CCN1c2ccc(C(=O)NCc3cnc(-c4ccc(C#N)cc4)s3)cc2NC(=O)c2ccccc21 [compound 1975] | 1% | 63%
CC1(C)CCN(c2ncc(CNC(=O)c3ccc4c(c3)NC(=O)c3ccccc3S4(=O)=O)s2)C1 [compound 1981] | 0.2% | 105%
Cl.NCCCOc1ccc(-c2ncc(CNC(=O)c3ccc4c(c3)NC(=O)c3ccccc3S4(=O)=O)s2)cc1 [compound 1988, N-((2-(4-(3-aminopropoxy)phenyl)thiazol-5-yl)methyl)-11-oxo-10, 11-dihydrodibenzo [b, f] [1, 4] thiazepine-8-carboxamide 5,5-dioxide hydrochloride] | 1.3% | 103%
CNCCCOc1ccc(-c2ncc(CNC(=O)c3ccc4c(c3)NC(=O)c3ccccc3S4(=O)=O)s2)cc1 [compound 1989, N-((2-(4-(3-(methylamino)propoxy)phenyl)thiazol-5-yl)methyl)-11-oxo-10, 11-dihydrodibenzo [b, f] [1, 4] thiazepine-8-carboxamide 5,5-dioxide] | 2.5% | 90%
CC(C)(C)NCCCOc1ccc(-c2ncc(CNC(=O)c3ccc4c(c3)NC(=O)c3ccccc3S4(=O)=O)s2)cc1 [compound 1990, N-((2-(4-(3-(tert-butylamino)propoxy)phenyl)thiazol-5-yl)methyl)-11-oxo-10, 11-dihydrodibenzo [b, f] [1, 4] thiazepine-8-carboxamide 5,5-dioxide] | 4.1% | 98%
CC(=O)NCCCOc1ccc(-c2ncc(CNC(=O)c3ccc4c(c3)NC(=O)c3ccccc3S4(=O)=O)s2)cc1 [compound 1991] | 2% | 98%
O=C(NCc1cnc(-c2ccc(OCCCN3CCCCC3)cc2)s1)c1ccc2c(c1)NC(=O)c1ccccc1S2(=O)=O [compound 1992] | 5% | 89%
O=C(NCc1cnc(-c2ccc(OCCCN3CCOCC3)cc2)s1)c1ccc2c(c1)NC(=O)c1ccccc1S2(=O)=O [compound 1993] | 0.5% | 96%
CN(CCCOc1ccc(-c2ncc(CNC(=O)c3ccc4c(c3)NC(=O)c3ccccc3S4(=O)=O)s2)cc1)CC(F)(F)F [compound 1994] | 0.9% | 92%
O=C(NCc1cnc(-c2ccc(OCC3CNC3)cc2)s1)c1ccc2c(c1)NC(=O)c1ccccc1S2(=O)=O.O=C(O)C(F)(F)F [compound 1995, N-((2-(4-(azetidin-3-ylmethoxy)phenyl)thiazol-5-yl)methyl)-11-oxo-10, 11-dihydrodibenzo [b, f] [1, 4] thiazepine-8-carboxamide 5,5-dioxide TFA salt] | 16.3% | 103%
Cl.O=C(NCc1cnc(-c2ccc(OCCC3CCCN3)cc2)s1)c1ccc2c(c1)NC(=O)c1ccccc1S2(=O)=O (centres unmarked) [compound 1996, 11-oxo-N-((2-(4-(2-(pyrrolidin-2-yl)ethoxy)phenyl)thiazol-5-yl)methyl)-10, 11-dihydrodibenzo [b, f] [1, 4] thiazepine-8-carboxamide 5,5-dioxide hydrochloride] | 17.4% | 100%
Cl.O=C(NCc1cnc(-c2ccc(OCC3CCCNC3)cc2)s1)c1ccc2c(c1)NC(=O)c1ccccc1S2(=O)=O (centres unmarked) [compound 1997, 11-oxo-N-((2-(4-(piperidin-3-ylmethoxy)phenyl)thiazol-5-yl)methyl)-10, 11-dihydrodibenzo [b, f] [1, 4] thiazepine-8-carboxamide 5,5-dioxide hydrochloride] | 9.7% | 104%
O=C(NCc1cnc(-c2ccc(OCCCN(CCO)CCO)cc2)s1)c1ccc2c(c1)NC(=O)c1ccccc1S2(=O)=O [compound 1998] | 3.7% | 99%
CN(C)CCCCOc1ccc(-c2ncc(CNC(=O)c3ccc4c(c3)NC(=O)c3ccccc3S4(=O)=O)s2)cc1 [compound 11001] | 1.7% | 77%
NCCC#Cc1ccc(-c2ncc(CNC(=O)c3ccc4c(c3)NC(=O)c3ccccc3S4(=O)=O)s2)cc1 [compound 11002, N-((2-(4-(4-aminobut-1-yn-1-yl)phenyl)thiazol-5-yl)methyl)-11-oxo-10, 11-dihydrodibenzo [b, f] [1, 4] thiazepine-8-carboxamide 5,5-dioxide] | 0.9% | 90%
